In test [1] the test system is 3D7 strain of Plasmodium falciparum. Briefly: In vitro activity against 3D7 strain of Plasmodium falciparum ([3H]-hypoxanthine incorporation assay). Format: cell-based. Conditions: Erythrocyte, 48 h, P. falciparum 3D7 in human erythrocytes, 2 d, growth inhibition, read-out: IC50: 1 Org. Growth P. falciparum 3D7, 2 d (LPS_00570). How it is done:
In Vitro Activity Against Plasmodium falciparum a) Against 3D7 Strain of Plasmodium falciparum Inhibition of 3D7 strain parasites was assessed using the [^3H]-hypoxanthine incorporation assay (Desjardins, et al. Antimicrob. Agents Chemother. 1979, 16, 710-718). Briefly, parasites were cultured in human erythrocytes (from the Spanish Red Cross blood bank) using RPMI-1640 culture media (Gibco) supplemented with 0.5% Albumax II (Invitrogen), 2% D-sucrose (Sigma-Aldrich), 0.3% glutamine (Sigma-Aldrich), and 5 mM hypoxanthine (Sigma-Aldrich). Cultures were maintained at 37° C. at an atmosphere of 5% O2, 5% CO2, and […]. To assess inhibition, asynchronous parasite cultures with 0.5% parasitemia and 2% hematocrit were exposed to 3-fold serial dilutions of test compounds for 24 hours in 96 well plate cultures (Costar #3894). After 24 hours, [^3H]-hypoxanthine was added, plates were incubated for an additional 24 hours, and parasites were harvested on glass fiber filters (Wallac #1450-421) using a cell harvester 96 (TOMTEC, Perkin Elmer). Filters were dried on scintillator sheets (MeltiLex A, PerkinElmer #1450-441) to determine incorporation of [^3H]-hypoxanthine. Radioactivity was measured using a microbeta counter (Perkin Elmer). Data are normalized using the incorporation of the positive control (infected erythrocytes without drug). IC50 values were determined using Excel and Grafit 5 software. Values were determined from at least three independent experiments, and standard deviations were calculated.

The test system of test [2] is W2 strain of Plasmodium falciparum. Briefly: In vitro activity against W2 strain of Plasmodium falciparum (YOYO-1 flow cytometry). The class given is cell-based. Conditions: Erythrocyte, 48 h, P. falciparum W2 in human erythrocytes, 2 d, growth inhibition, read-out: IC50: 1 Org. Growth P. falciparum W2, 2 d (LPS_00451). As to the method:
In Vitro Activity Against Plasmodium falciparum
b) Against W2 Strain of Plasmodium falciparum
W2 strain P. falciparum parasites were cultured in human erythrocytes and RPMI-1640 culture media with either 10% human serum or 0.5% Albumax serum substitute under 3% O2, 5% CO2, and 92% N2. Parasites synchronized to ring stage by treatments with 5% D-sorbitol were cultured with serial dilutions of benzoxaboroles from 5 to 10 mM stocks in 96 well microplate cultures including 200 μL of media/well, 2% hematocrit, and 1% parasitemia. At the completion of 48 h incubations, when untreated cultures contained new rings, parasites were fixed with 2% formaldehyde for 48 h, and 5 μL aliquots were transferred to another 96 well plate containing 150 μL/well of staining solution (100 mM NH4Cl, 0.1% Triton X-100, and 1 nM YOYO-1 in PBS). Parasites per erythrocyte were then determined by flow cytometry from plots of forward scatter against fluorescence (excitation 488 nm, emission 520 nm) using a FacSort flow cytometer (Beckton Dickinson) equipped with an AMS Loader (Cytek Development). All values were normalized to percent control activity, and IC50s were calculated using the Prism 3.0 program (GRAPHPAD Software). Goodness of fit was assessed by R^2 values, and meaningful dose-response curves yielded R^2 values >0.95.

Broadly, the IC50 is the midpoint of a concentration-inhibition curve.

For the molecule `Cc1c(Oc2cnc(C(=O)N[C@@H](CO)CS(C)(=O)=O)cn2)ccc2c1B(O)OC2` [Example 36, (S)—N-(1-hydroxy-3-(methylsulfonyl)propan-2-yl)-5-(1-hydroxy-7-methyl-1,3-dihydrobenzo[c][1,2]oxaborol-6-yloxy)pyrazine-2-carboxamide], the IC50 amounted to 472 nM in test [1] and 201 nM in test [2].
As to `Cc1c(Oc2cnc(C(=O)NCC(C)(C)O)cn2)ccc2c1B(O)OC2` [Example 4, N-(2-hydroxy-2-methylpropyl)-5-(1-hydroxy-7-methyl-1,3-dihydrobenzo[c][1,2]oxaborol-6-yloxy)pyrazine-2-carboxamide], the 50% inhibitory concentration (IC50) amounted to 554 nM in test [1] and 334 nM in test [2].
In the same order, the values of `Cc1c(Oc2cnc(C(=O)N[C@@H](CO)C3CC3)cn2)ccc2c1B(O)OC2` [Example 24, (R)—N-(1-cyclopropyl-2-hydroethyl)-5-(1-hydroxy-7-methyl-1,3-dihydrobenzo[c][1,2]oxaborol-6-yloxy)pyrazine-2-carboxamide] are 587 nM and 492 nM.
The like results for `Cc1c(Oc2cnc(C(=O)N[C@@H](CO)CC(F)(F)F)cn2)ccc2c1B(O)OC2` [Example 33, (R)-5-(1-hydroxy-7-methyl-1,3-dihydrobenzo[c][1,2]oxaborol-6-yloxy)-N-(4,4,4-trifluoro-1-hydroxybutan-2-yl)pyrazine-2-carboxamide] were, in that order, 149 nM and 82.2 nM.
In the same order, the values of `Cc1c(Oc2cnc(C(=O)NC(CO)C(C)C)cn2)ccc2c1B(O)OC2` (stereo not drawn) [Example 7, N-(1-hydroxy-3-methylbutan-2-yl)-5-(1-hydroxy-7-methyl-1,3-dihydrobenzo[c][1,2]oxaborol-6-yloxy)pyrazine-2-carboxamide] are 96.5 nM and 115 nM.
Turning to `CCCC1(O)CN(C(=O)c2cnc(Oc3ccc4c(c3C)B(O)OC4)cn2)C1` [Example 56, (3-hydroxy-3-propylazetidin-1-yl) (5-((1-hydroxy-7-methyl-1,3-dihydrobenzo[c][1,2]oxaborol-6-yl)oxy)pyrazin-2-yl)methanone], the IC50 was 137 nM in test [1] and 15.9 nM in test [2].
On to `CCC[C@H](CO)N(C)C(=O)c1cnc(Oc2ccc3c(c2C)B(O)OC3)cn1` [Example 52, (R)-5-(1-hydroxy-7-methyl-1,3-dihydrobenzo[c][1,2]oxaborol-6-yloxy)-N-(1-hydroxypentan-2-yl)-N-methylpyrazine-2-carboxamide], for which the IC50 in test [1] worked out at 252 nM; in test [2] it was 48.1 nM.
In the same order, the values of `Cc1c(Oc2cnc(C(=O)N[C@H](C)C(C)(C)O)cn2)ccc2c1B(O)OC2` [Example 48, (R)—N-(3-hydroxy-3-methylbutan-2-yl)-5-(1-hydroxy-7-methyl-1,3-dihydrobenzo[c][1,2]oxaborol-6-yloxy)pyrazine-2-carboxamide] are 374 nM and 265 nM.
The like results for `Cc1c(Oc2cnc(C(=O)N3CC(O)(C4CC4)C3)cn2)ccc2c1B(O)OC2` [Example 55, (3-cyclopropyl-3-hydroxyazetidin-1-yl) (5-((1-hydroxy-7-methyl-1,3-dihydrobenzo[c][1,2]oxaborol-6-yl)oxy)pyrazin-2-yl)methanone] were, in that order, 234 nM and 51.7 nM.
In the same order, the values of `Cc1c(Oc2cnc(C(=O)N(CCO)CCO)cn2)ccc2c1B(O)OC2` [Example 6, 5-(1-hydroxy-7-methyl-1,3-dihydrobenzo[c][1,2]oxaborol-6-yloxy)-N,N-bis(2-hydroxyethyl)pyrazine-2-carboxamide] are 184 nM and 328 nM.
On to `C=C[C@@H](CO)NC(=O)c1cnc(Oc2ccc3c(c2C)B(O)OC3)cn1` [Example 29, (S)-5-(1-hydroxy-7-methyl-1,3-dihydrobenzo[c][1,2]oxaborol-6-yloxy)-N-(1-hydroxybut-3-en-2-yl)pyrazine-2-carboxamide], for which the IC50 turned out to be 764 nM in test [1] and 828 nM in test [2].
On to `Cc1c(Oc2cnc(C(=O)NCCO)cn2)ccc2c1B(O)OC2` [Example 1, 5-((1-hydroxy-7-methyl-1,3-dihydrobenzo[c][1,2]oxaborol-6-yl)oxy)-N-(2-hydroxyethyl)pyrazine-2-carboxamide], for which the IC50 was determined as 1080 nM in test [1] and 372 nM in test [2].
In the same order, the values of `Cc1c(Oc2cnc(C(=O)NC(CO)Cc3ccccc3)cn2)ccc2c1B(O)OC2` (stereo not drawn) [Example 15, N-(1-hydroxy-3-phenylpropan-2-yl)-5-(1-hydroxy-7-methyl-1,3-dihydrobenzo[c][1,2]oxaborol-6-yloxy)pyrazine-2-carboxamide] are 407 nM and 297 nM.
As for `Cc1c(Oc2cnc(C(=O)N[C@@H](CO)Cc3ccccc3)cn2)ccc2c1B(O)OC2` [Example 27, (R)—N-(1-hydroxy-3-phenylpropan-2-yl)-5-(1-hydroxy-7-methyl-1,3-dihydrobenzo[c][1,2]oxaborol-6-yloxy)pyrazine-2-carboxamide], the IC50 in test [1] is 505 nM; in test [2], 115 nM.
In the same order, the values of `CC[C@@H](NC(=O)c1cnc(Oc2ccc3c(c2C)B(O)OC3)cn1)C(C)(C)O` [Example 45, (R)—N-(2-hydroxy-2-methylpentan-3-yl)-5-(1-hydroxy-7-methyl-1,3-dihydrobenzo[c][1,2]oxaborol-6-yloxy)pyrazine-2-carboxamide] are 222 nM and 91.8 nM.
